These results are taken from ChEMBL document CHEMBL4476874, “Compounds for the modulation of myc activity” (2018).

For assay [1], the target named is Myc proto-oncogene protein (Homo sapiens, UniProt P01106). Description: Inhibition of human c-Myc assessed as reduction in c-Myc/Max/Ebox DNA complex formation using pre-formed complex of c-Myc and biotinylated DNA containing single Ebox-sequence followed by compound addition and further addition of his6-tagged c-Max and incubated for 2 hrs by AlphaScreen assay. In general terms: Bead proximity is the source of the signal in Alpha formats.

The test system of a further assay is NCI-H2171. Description: Antiproliferative activity against human NCI-H2171 cells after 72 hrs by ATPlite assay. Format: functional, cell-based. Conditions: NCI-H2171, 72 h. In general terms: Cellular ATP, detected with luciferase, serves as a proxy for viable cell number.

Myc proto-oncogene protein, sequence (P01106 whole entry): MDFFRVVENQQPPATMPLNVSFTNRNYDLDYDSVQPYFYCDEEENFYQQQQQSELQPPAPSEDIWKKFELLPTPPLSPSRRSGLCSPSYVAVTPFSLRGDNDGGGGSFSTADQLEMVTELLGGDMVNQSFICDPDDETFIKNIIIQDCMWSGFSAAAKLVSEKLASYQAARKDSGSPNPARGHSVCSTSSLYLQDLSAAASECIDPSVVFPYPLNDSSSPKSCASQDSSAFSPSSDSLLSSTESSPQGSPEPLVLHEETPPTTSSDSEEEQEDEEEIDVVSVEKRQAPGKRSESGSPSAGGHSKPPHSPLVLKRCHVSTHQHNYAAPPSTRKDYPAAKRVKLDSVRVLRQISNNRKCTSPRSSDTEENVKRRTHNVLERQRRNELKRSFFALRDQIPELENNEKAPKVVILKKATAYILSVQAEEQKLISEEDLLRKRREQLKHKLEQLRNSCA

In the case of `COCCNCCC(=O)Nc1sc2c(c1-c1nc3c(-n4ccnc4C)cccc3s1)CCNC2`, the concentration for half-maximal inhibition (IC50) (in general, the concentration needed to halve the response being measured) in assay [1] is 300 to 1000 nM; in the assay with NCI-H2171, < 300 nM.

As to `CCN(CC)CCNCCC(=O)Nc1sc2c(c1-c1nc3ccccc3s1)CCN(C(C)C)C2`, the IC50 is 300 to 1000 nM in assay [1] and 1000 to 10000 nM in the assay on NCI-H2171.

Turning to `COCCNCCC(=O)Nc1sc2c(c1-c1nc3ccc(-c4cncc(F)c4)cc3s1)CCNC2`, the 50% inhibitory concentration (IC50) in assay [1] was 300 to 1000 nM; in the assay on NCI-H2171 it was < 300 nM.

For the molecule `COCCNCCC(=O)Nc1sc2c(c1-c1nc3ccc(-c4ccc(N5CCN(C)CC5)cc4)cc3s1)CCNC2`, the IC50 (in assay [1]; in the assay with NCI-H2171) was < 300 nM throughout.

As for `Cc1cc(-c2ccc3sc(-c4c(NC(=O)CCNC(C)C)sc5c4CCNC5)nc3c2)n(C)n1`, the results for the half-inhibitory concentration (IC50) (in assay [1]; in the assay with NCI-H2171) were < 300 nM and 300 to 1000 nM, respectively.

As for `CCc1cccc2sc(-c3c(NC(=O)CCNCCOC)sc4c3CCNC4)nc12`, the IC50 (in assay [1]; with NCI-H2171) was < 300 nM in each case.

Turning to `COCCNCCC(=O)Nc1sc2c(c1-c1nc3cc(-c4cccc(S(C)(=O)=O)c4)ccc3s1)CCNC2`, the IC50 in assay [1] was 300 to 1000 nM; in the assay on NCI-H2171, < 300 nM.

As to `COCCNCCC(=O)Nc1sc2c(c1-c1nc3ccc(-c4cnn(C)c4C)cc3s1)CCNC2`, the figures for the IC50 (in assay [1]; with NCI-H2171) were 300 to 1000 nM and < 300 nM, respectively.

On to `CC(C)N1CCc2c(sc(NC(=O)CCNCc3ccccc3)c2-c2nc3ccccc3s2)C1`, for which the IC50 (in assay [1]; with NCI-H2171) was 1000 to 10000 nM each time.

As for `COCCNCCC(=O)Nc1sc2c(c1-c1nc3ccc(-c4cccc(NS(C)(=O)=O)c4)cc3s1)CCNC2`, the half-maximal inhibitory concentration (IC50) was 300 to 1000 nM in assay [1] and < 300 nM with NCI-H2171.

`COCCNCCC(=O)Nc1sc2c(c1-c1nc3ccc(-c4ccc(F)nc4)cc3s1)CCNC2`: the half-maximal inhibitory concentration (IC50) in assay [1] is 300 to 1000 nM; in the assay with NCI-H2171 it was < 300 nM.

With `CCN(CC)CCC(=O)Nc1sc2c(c1-c1nc3ccccc3s1)CCNC2`, the IC50 is 300 to 1000 nM in assay [1] and < 300 nM with NCI-H2171.

On to `COCCNCCC(=O)Nc1sc2c(c1-c1nc3ccc(-c4ccc(C)nc4)cc3s1)CCNC2`, for which the IC50 is 300 to 1000 nM in assay [1] and < 300 nM in the assay with NCI-H2171.

As to `CC(C)NCCC(=O)Nc1sc2c(c1-c1nc3cc(S(=O)(=O)c4ccccc4)ccc3s1)CCNC2`, the IC50 was 300 to 1000 nM in assay [1] and < 300 nM in the assay with NCI-H2171.

As to `COCCNCCC(=O)Nc1sc2c(c1-c1nc3cc(-c4cnn(C)c4C)ccc3s1)CCNC2`, the IC50 is 300 to 1000 nM in assay [1] and < 300 nM in the assay with NCI-H2171.

In the case of `CC(C)NCCC(=O)Nc1sc2c(c1-c1nc3cc(C4CCCCC4)ccc3s1)CCNC2`, the values for the 50% inhibitory concentration (IC50) (in assay [1]; with NCI-H2171) were > 10000 nM and 300 to 1000 nM, respectively.

Turning to `COCCNCCC(=O)Nc1sc2c(c1-c1nc3ccc(-c4ccnn4C)cc3s1)CCNC2`, the IC50 is 1000 to 10000 nM in assay [1] and < 300 nM in the assay with NCI-H2171.

Take `COCCNCCC(=O)Nc1sc2c(c1-c1nc3cc(-c4c[nH]nc4C)ccc3s1)CCNC2`: the IC50 (in assay [1]; in the assay on NCI-H2171) was 300 to 1000 nM each time.

With `COCCNCCC(=O)Nc1sc2c(c1-c1nc3ccccc3s1)CCN[C@@H]2C`, the IC50 (in assay [1]; in the assay on NCI-H2171) was < 300 nM each time.

`COCCNCCC(=O)Nc1sc2c(c1-c1nc3ccc(-c4ccc5nc(N)ncc5c4)cc3s1)CCNC2`: the values for the 50% inhibitory concentration (IC50) (in assay [1]; in the assay with NCI-H2171) were > 10000 nM and < 300 nM, respectively.

Turning to `COCCNCCC(=O)Nc1sc2c(c1-c1nc3ccc(-c4ccnc(N)c4)cc3s1)CCNC2`, the IC50 is 300 to 1000 nM in assay [1] and < 300 nM in the assay with NCI-H2171.

Turning to `COCCNCCC(=O)Nc1sc2c(c1-c1nc3cc(-c4cnc(N)c(C(F)(F)F)c4)ccc3s1)CCNC2`, the IC50 in assay [1] was 1000 to 10000 nM; in the assay on NCI-H2171, < 300 nM.

In the case of `COCCNCCC(=O)Nc1sc2c(c1-c1nc3cc(-c4cncc(OCCOC)c4)ccc3s1)CCNC2`, the IC50 in assay [1] is 300 to 1000 nM; in the assay on NCI-H2171, < 300 nM.

On to `CC(=O)Nc1sc2c(c1-c1nc3cc(-c4cnn(C)c4)ccc3s1)CCNC2`, for which the concentration for half-maximal inhibition (IC50) in assay [1] is 300 to 1000 nM; in the assay with NCI-H2171, < 300 nM.

As to `COCCNCCC(=O)Nc1sc2c(c1-c1nc3ccc(-c4cncc(C(F)(F)F)c4)cc3s1)CCNC2`, the IC50 in assay [1] was > 10000 nM; in the assay with NCI-H2171, < 300 nM.
